The OligoGym collection
HELM strings list units from the 5' end as sugar, base in round brackets, then linkage (d deoxyribose, r ribose, m 2'-O-methyl, p phosphodiester). Strings are as the collection lists them; they lack the last nucleoside at the 3' end of the tested compound. [moe] = 2'-O-(2-methoxyethyl) (MOE); [sp] = phosphorothioate linkage; [m5C] = 5-methylcytosine

Biological target: UBE3A-ATS
Assay: mouse, dose not given
Details: ASO

Substance	3 h FOB score [score 0-7]
RNA1{[moe](G)[sp].[moe](G)p.[moe](A)p.[moe](T)p.[moe](T)p.d(T)[sp].d(T)[sp].d(A)[sp].d(T)[sp].d(T)[sp].d(G)[sp].d(G)[sp].d(T)[sp].d([m5C])[sp].d(A)[sp].[moe](T)p.[moe]([m5C])p.[moe](T)[sp].[moe]([m5C])}$$$$ (last 3' nucleoside missing)	5
RNA1{[moe](G)[sp].[moe](G)p.[moe](A)p.[moe](T)p.[moe](T)p.d([m5C])[sp].d(A)[sp].d(A)[sp].d(T)[sp].d(A)[sp].d(G)[sp].d(T)[sp].d(G)[sp].d(T)[sp].d(A)[sp].[moe](G)p.[moe](G)p.[moe](T)[sp].[moe](G)}$$$$ (last 3' nucleoside missing)	7
RNA1{[moe](G)[sp].[moe](G)p.[moe](A)p.[moe]([m5C])p.[moe](A)p.d(G)[sp].d([m5C])[sp].d(T)[sp].d(G)[sp].d(T)[sp].d(G)[sp].d(T)[sp].d(G)[sp].d(G)[sp].d(A)[sp].[moe](G)p.[moe](G)p.[moe](G)[sp].[moe](A)}$$$$ (last 3' nucleoside missing)	5.5
RNA1{[moe](G)[sp].[moe](G)p.[moe](A)p.[moe]([m5C])p.[moe](A)p.d([m5C])[sp].d(T)[sp].d([m5C])[sp].d(T)[sp].d([m5C])[sp].d(G)[sp].d([m5C])[sp].d(T)[sp].d(G)[sp].d(A)[sp].[moe](G)p.[moe](G)p.[moe](A)[sp].[moe]([m5C])}$$$$ (last 3' nucleoside missing)	4.5
RNA1{[moe](G)[sp].[moe](G)p.[moe](A)p.[moe]([m5C])p.[moe](T)p.d(T)[sp].d(G)[sp].d(T)[sp].d([m5C])[sp].d(T)[sp].d(T)[sp].d(A)[sp].d(T)[sp].d(G)[sp].d(G)[sp].[moe]([m5C])p.[moe](T)p.[moe](G)[sp].[moe]([m5C])}$$$$ (last 3' nucleoside missing)	1
RNA1{[moe](G)[sp].[moe](G)p.[moe](G)p.[moe](A)p.[moe](A)p.d(G)[sp].d(T)[sp].d([m5C])[sp].d(T)[sp].d(A)[sp].d(G)[sp].d(G)[sp].d(T)[sp].d([m5C])[sp].d(T)[sp].[moe]([m5C])p.[moe](A)p.[moe]([m5C])[sp].[moe](G)}$$$$ (last 3' nucleoside missing)	3.2
RNA1{[moe](G)[sp].[moe](G)p.[moe](G)p.[moe](A)p.[moe](A)p.d([m5C])[sp].d(A)[sp].d([m5C])[sp].d(A)[sp].d([m5C])[sp].d([m5C])[sp].d(A)[sp].d(T)[sp].d(T)[sp].d([m5C])[sp].[moe](A)p.[moe](G)p.[moe]([m5C])[sp].[moe](A)}$$$$ (last 3' nucleoside missing)	4.5
RNA1{[moe](G)[sp].[moe](G)p.[moe](G)p.[moe](A)p.[moe](G)p.d(G)[sp].d(A)[sp].d(G)[sp].d(T)[sp].d([m5C])[sp].d([m5C])[sp].d([m5C])[sp].d([m5C])[sp].d(A)[sp].d(G)[sp].[moe](A)p.[moe](T)p.[moe](A)[sp].[moe](A)}$$$$ (last 3' nucleoside missing)	1.2
RNA1{[moe](G)[sp].[moe](G)p.[moe](G)p.[moe](A)p.[moe](T)p.d(A)[sp].d(T)[sp].d(A)[sp].d(T)[sp].d([m5C])[sp].d(A)[sp].d([m5C])[sp].d(T)[sp].d(T)[sp].d(G)[sp].[moe](G)p.[moe](A)p.[moe](G)[sp].[moe]([m5C])}$$$$ (last 3' nucleoside missing)	4
RNA1{[moe](G)[sp].[moe](G)p.[moe](G)p.[moe](A)p.[moe](T)p.d(T)[sp].d(T)[sp].d(A)[sp].d([m5C])[sp].d([m5C])[sp].d([m5C])[sp].d(A)[sp].d(T)[sp].d(T)[sp].d(G)[sp].[moe]([m5C])p.[moe](A)p.[moe](A)[sp].[moe](G)}$$$$ (last 3' nucleoside missing)	1
RNA1{[moe](G)[sp].[moe](G)p.[moe](G)p.[moe](T)p.[moe](A)p.d(G)[sp].d(A)[sp].d(A)[sp].d(G)[sp].d(A)[sp].d([m5C])[sp].d(T)[sp].d(A)[sp].d(G)[sp].d([m5C])[sp].[moe](A)p.[moe](T)p.[moe](A)[sp].[moe]([m5C])}$$$$ (last 3' nucleoside missing)	5.8
RNA1{[moe](G)[sp].[moe](G)p.[moe](G)p.[moe](T)p.[moe](A)p.d(T)[sp].d(T)[sp].d(G)[sp].d([m5C])[sp].d(T)[sp].d(G)[sp].d(T)[sp].d([m5C])[sp].d([m5C])[sp].d(A)[sp].[moe](A)p.[moe](A)p.[moe](T)[sp].[moe](G)}$$$$ (last 3' nucleoside missing)	6.8
RNA1{[moe](G)[sp].[moe](G)p.[moe](G)p.[moe](T)p.[moe](A)p.d([m5C])[sp].d(T)[sp].d(A)[sp].d(T)[sp].d(G)[sp].d(T)[sp].d(T)[sp].d(G)[sp].d(T)[sp].d([m5C])[sp].[moe](A)p.[moe]([m5C])p.[moe](T)[sp].[moe](G)}$$$$ (last 3' nucleoside missing)	6
RNA1{[moe](G)[sp].[moe](G)p.[moe](G)p.[moe](T)p.[moe](T)p.d(A)[sp].d([m5C])[sp].d(T)[sp].d(T)[sp].d(T)[sp].d([m5C])[sp].d([m5C])[sp].d(A)[sp].d(A)[sp].d(T)[sp].[moe](A)p.[moe](G)p.[moe](A)[sp].[moe](G)}$$$$ (last 3' nucleoside missing)	1.5
RNA1{[moe](G)[sp].[moe](G)p.[moe](G)p.[moe](T)p.[moe]([m5C])p.d(G)[sp].d(G)[sp].d(A)[sp].d(T)[sp].d(A)[sp].d(T)[sp].d(A)[sp].d(G)[sp].d([m5C])[sp].d(T)[sp].[moe](T)p.[moe](T)p.[moe](T)[sp].[moe](A)}$$$$ (last 3' nucleoside missing)	5
RNA1{[moe](G)[sp].[moe](G)p.[moe](G)p.[moe]([m5C])p.[moe](A)p.d(A)[sp].d(A)[sp].d(A)[sp].d(A)[sp].d(T)[sp].d(A)[sp].d(G)[sp].d([m5C])[sp].d(A)[sp].d(A)[sp].[moe]([m5C])p.[moe](A)p.[moe](T)[sp].[moe](A)}$$$$ (last 3' nucleoside missing)	5.8
RNA1{[moe](G)[sp].[moe](G)p.[moe](G)p.[moe]([m5C])p.[moe](A)p.d(G)[sp].d([m5C])[sp].d(A)[sp].d(A)[sp].d([m5C])[sp].d(A)[sp].d(G)[sp].d([m5C])[sp].d(T)[sp].d([m5C])[sp].[moe](T)p.[moe](T)p.[moe](G)[sp].[moe](A)}$$$$ (last 3' nucleoside missing)	7
RNA1{[moe](G)[sp].[moe](G)p.[moe](G)p.[moe]([m5C])p.[moe](A)p.d([m5C])[sp].d(A)[sp].d(G)[sp].d(T)[sp].d(A)[sp].d(G)[sp].d(T)[sp].d(G)[sp].d(G)[sp].d(T)[sp].[moe](A)p.[moe](T)p.[moe]([m5C])[sp].[moe](A)}$$$$ (last 3' nucleoside missing)	5.2
RNA1{[moe](G)[sp].[moe](G)p.[moe](T)p.[moe](A)p.[moe](A)p.d(G)[sp].d(G)[sp].d([m5C])[sp].d(A)[sp].d(G)[sp].d([m5C])[sp].d(T)[sp].d([m5C])[sp].d([m5C])[sp].d(T)[sp].[moe](G)p.[moe](A)p.[moe]([m5C])[sp].[moe](A)}$$$$ (last 3' nucleoside missing)	1.3
